Several values for one entry are separate records, joined by “and”; a condition that tells them apart may be missing. Identical values can stand only once.
Key:
C. neoformans ATCC 90112 = experiment: In vitro antifungal susceptibility assay adapted from NCCLS (MIC); format: cell-based, Cryptococcus neoformans; conditions: RPMI-1640
Protocol: Compounds of the invention also display antifungal activities. […] Using C. albicans ATCC® 90028, C. neoformans ATCC® 90112 and T. glabrata ATCC® 90030, the protocol is performed as follows:
Prepare 0.0128 g DAA in 10 mL dH2 O (or other if H2 O insoluble)=1280 μg/mL (stock solution). Dilute DAA stock solution 1:10 with RPMI-1640: 0.5 mL DAA stock solution+4.5 mL RPMI-1640=128 μg/mL (DAA working solution).
Inoculate rows A-H, columns 2-12 with 100 μl of RPMI-1640 using Eppendorf repeater pipette. Inoculate rows A-C columns 1 and 2 with 100 μl of 1st antibiotic (i.e. DAA-1) using electronic pipette. Inoculate rows E-G columns 1 and 2 with 100 μl of 2nd antibiotic (i.e. DAA-2) using electronic pipette. […] Plate is now ready for fungal inocula, which involves pipetting 100 μl of the inocula into all wells in rows A-C columns 1-12 and rows E-G columns 1-12. […]
Five colonies greater than 1 mm in diameter are suspended in a spectrophotometer cuvette containing 5 mL of sterile, 0.85% saline (colonies are obtained from 24 hrs. old Candida and Torulopsis cultures, while Cryptococcus colonies are chosen from 48 hrs. old cultures). Spectrophotometer is set to read % transmission at a wavelength of 530 nm, and is standardized using two cuvettes. […] Fungal inoculum is now prepared and ready to be introduced to microplates. […]

ATCC S. epid 14990 = experiment: Broth microdilution (NCCLS guidelines), MIC; format: cell-based; conditions: for MICs: in µg/mL
Protocol: (§1) The dimer product of Example 15 was obtained in powder form. A stock solution of 1280 mg/L of the dimer in dimethylsulfoxide (DMSO) was prepared and stored at room temperature in a foil-wrapped screw-capped tube (10 ml). Subsequent dilutions were prepared using cation-adjusted Mueller-Hinton broth (50 mg/L Mg). […] It was resuspended upon mixing each time an aliquot was taken from the solution.
(§2) Approximately 100 varied bacterial isolates were initially collected for screening, along with 9 ATCC organisms. Forty additional strains of Staphylococcus species were subsequently screened. All isolates were identified according to generally accepted lab protocol.
(§3) Broth microdilution was performed according to NCCLS guidelines. Microdilution panels were prepared using doubling dilutions of the dimer in ~250 μl plastic, 96-well trays. Inoculum suspension equal to a 0.5 McFarland standard were further diluted and added to the microdilution trays to achieve a final inoculum of 5×10^5 CFU/ml (5×10^4 CFU/well). Colony counts were performed to confirm the final inoculum, as well as its purity. Each strain was also tested in a growth control well containing only MHB for viability.
(§4) Microdilution trays were incubated at 35° C. in ambient air or 5% CO2 as appropriate for 16-20 hours. After incubation, the minimal inhibitory concentration (MIC) was defined as the lowest concentration of the dimer with no evidence of growth. Since 10 or more strains of most organisms were tested; a range of MICs was determined for each organism, as well as the concentration of the dimer that inhibited 50% of the strains (MIC50) and the concentration of the dimer that inhibited 90% of the strains (MIC90).

Acinetobacter = experiment: Broth microdilution (NCCLS guidelines), MIC; format: cell-based; conditions: Table A, 5 strains
Protocol: as §1, §2, §3, §4

B. cepacia = experiment: Broth microdilution (NCCLS guidelines), MIC; format: cell-based; conditions: Table A, 5 strains
Protocol: as §1, §2, §3, §4

Enterobacteriaceae = experiment: Broth microdilution (NCCLS guidelines), MIC; format: cell-based; conditions: Table A, 10 strains
Protocol: as §1, §2, §3, §4

[1] = test system: Vancomycin resistant Enterococcus (VRE); experiment: Broth microdilution (NCCLS guidelines), MIC; format: cell-based; conditions: Table A
Protocol: as §1, §2, §3, §4

[2] = test system: Vancomycin susceptible Enterococcus (VSE); experiment: Broth microdilution (NCCLS guidelines), MIC; format: cell-based; conditions: Table A
Protocol: as §1, §2, §3, §4

[3] = test system: Staneg (coagulase negative Staph); experiment: Minimal bactericidal concentration (MBC), 99.9% kill; format: cell-based, Coagulase negative staphylococci; design: unit not given here
Protocol: as §3
Various isolates were also tested for minimal bactericidal concentration (MBC) (see Tables D and F).
Subbed clear wells (50 μl) Inoculum 5 × 10^4 /well
99.9% kill = 50 cols/well
Subbed 50 μl of ≤5 clear wells

10,10'-bis(3,6-dimethyl-5,10-dihydro-1,8-diazaanthracen-5-one) and 5,5'-bis(3,6-dimethyl-5,10-dihydro-1,8-diazaanthracen-10-one) [Example 15]
MIC (C. neoformans ATCC 90112): 16 µg/mL
MICs (ATCC S. epid 14990; Table C, ATCC S. epid 14990 (×2), solution 14 days old): 0.25
MICs (ATCC S. epid 14990; Table E, ATCC S. epid 14990, fresh solution, * = skipped wells (second value), listed as Dimer): 0.3125 and 0.5
MIC (ATCC S. epid 14990; Table F, ATCC S. epid 14990): 0.0312 µg/mL
MIC (ATCC S. epid 14990; Table G footnote, ATCC 14990 (coag neg staph)): 0.0312 µg/mL
MIC50 (Acinetobacter): > 64 µg/mL
MIC90 (Acinetobacter): > 64 µg/mL
Range of MICs (Acinetobacter): > 64 mg/L
MIC50 (B. cepacia): > 64 µg/mL
MIC90 (B. cepacia): > 64 µg/mL
Range of MICs (B. cepacia): ≥ 64 mg/L
MIC50 (Enterobacteriaceae): > 64 µg/mL
MIC90 (Enterobacteriaceae): > 64 µg/mL
Range of MICs (Enterobacteriaceae): > 64 mg/L
MIC50 ([1]; 12 strains): 64 µg/mL
MIC90 ([1]; 12 strains): > 64 µg/mL
Range of MICs ([1]; 12 strains): ≥ 64 mg/L
MIC ([1]; ATCC VRE 51299): > 64 µg/mL
MIC50 ([2]; 12 strains): > 64 µg/mL
MIC90 ([2]; 12 strains): > 64 µg/mL
MIC ([2]; ATCC VSE 29212): > 64 µg/mL
MBC ([3]; Table D, Staneg 1, skipped wells): > 16
MBC ([3]; Table D, Staneg 2, skipped wells): > 4
MBC ([3]; Table D, Staneg 3): 16
MBC ([3]; Table D, Staneg 4): > 16
MBC ([3]; Table D, Staneg 5, skipped wells): 16
MBC ([3]; Table D, Staneg 6): 8
MBC ([3]; Table D, Staneg 7, skipped wells): > 16
MBC ([3]; Table D, Staneg 8): 16
MBC ([3]; Table F, Staneg 1): > 1.0
MBC ([3]; Table F, Staneg 4, skipped wells): > 16
MBC ([3]; Table F, Staneg 7): 1.0

From patent US5994365A, “Substituted diazaanthracene compounds having pharmaceutical utility” (Diazans Limited, priority 1998, dated 1999)
